Common to all, as to assay type: biochemical
Test [1] concerns panel of 95 different kinases. The test can be described thus: Kinase selectivity profile, 33P-ATP filter-binding assay (whole panel). To be noted: 10 µM; 95 kinases. As to the method:
Figure 5 Kinase selectivity profile of 1b. Compound 1b was profiled against a selected panel of 95 different kinases at a concentration of 10 µM employing a radioactive (^33P-ATP) filter-binding assay (National Centre for Protein Kinase Profiling, Dundee). The numbers represent the remaining kinase activity in %. […]

A further test has as its target ERK2 (Homo sapiens, UniProt P28482). The test can be described thus: Kinase selectivity profile, 33P-ATP filter-binding assay. Put shortly:
(§1)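 95-kinase panel; compound 10 µM; 33P-ATP filter-binding readout; data = % residual kinase activity.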

A further test has as its target LKB1 (Homo sapiens, UniProt Q15831). The test is described as above. Put shortly: as §1
The target in a further test is MAPKAP-K2 (Homo sapiens, UniProt P49137). Described as above. Put shortly: as §1
Another test has as its target PRAK (Homo sapiens, UniProt Q8IW41). Described as above. Put shortly: as §1
Another test addresses JNK1 (Homo sapiens, UniProt P45983). Described as above. Put shortly:
as §1

For a further test, the target named is PAK6 (Homo sapiens, UniProt Q9NQU5). Described as above. Put shortly:
as §1

The next test has as its target Aurora A (Homo sapiens, UniProt O14965). The test is described as above. Put shortly:
as §1

The next test concerns the target HIPK2 (Homo sapiens, UniProt Q9H2X6). The test is described as above. Put shortly: as §1
The next test addresses SYK (Homo sapiens, UniProt P43405). The description is as above. Put shortly: as §1
Another test has as its target RSK1 (Homo sapiens, UniProt Q15418). The description is as above. Put shortly: as §1
The target in another test is MSK1 (Homo sapiens, UniProt O75582). The test is described as above. Put shortly: as §1
The next test has as its target p38γ MAPK (Homo sapiens, UniProt P53778). The description is as above. Put shortly:
as §1

Here are results for one compound from publication PMC3388095, “Fluorophore Labeled Kinase Detects Ligands That Bind within the MAPK Insert of p38α Kinase” (PLoS ONE, 2012).

PRAK, sequence (Q8IW41 whole entry): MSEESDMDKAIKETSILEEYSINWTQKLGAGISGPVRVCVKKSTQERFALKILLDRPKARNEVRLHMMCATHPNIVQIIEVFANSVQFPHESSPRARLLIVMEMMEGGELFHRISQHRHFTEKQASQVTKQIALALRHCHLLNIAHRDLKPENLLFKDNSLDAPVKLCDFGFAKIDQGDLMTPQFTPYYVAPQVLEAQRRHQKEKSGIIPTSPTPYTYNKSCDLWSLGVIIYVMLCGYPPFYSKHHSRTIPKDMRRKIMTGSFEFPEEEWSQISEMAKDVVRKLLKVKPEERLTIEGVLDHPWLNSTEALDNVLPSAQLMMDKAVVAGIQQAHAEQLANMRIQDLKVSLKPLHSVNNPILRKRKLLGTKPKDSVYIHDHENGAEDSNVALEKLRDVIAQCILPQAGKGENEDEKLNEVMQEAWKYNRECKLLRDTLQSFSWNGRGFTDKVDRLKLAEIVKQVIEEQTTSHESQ
HIPK2, sequence (Q9H2X6 whole entry): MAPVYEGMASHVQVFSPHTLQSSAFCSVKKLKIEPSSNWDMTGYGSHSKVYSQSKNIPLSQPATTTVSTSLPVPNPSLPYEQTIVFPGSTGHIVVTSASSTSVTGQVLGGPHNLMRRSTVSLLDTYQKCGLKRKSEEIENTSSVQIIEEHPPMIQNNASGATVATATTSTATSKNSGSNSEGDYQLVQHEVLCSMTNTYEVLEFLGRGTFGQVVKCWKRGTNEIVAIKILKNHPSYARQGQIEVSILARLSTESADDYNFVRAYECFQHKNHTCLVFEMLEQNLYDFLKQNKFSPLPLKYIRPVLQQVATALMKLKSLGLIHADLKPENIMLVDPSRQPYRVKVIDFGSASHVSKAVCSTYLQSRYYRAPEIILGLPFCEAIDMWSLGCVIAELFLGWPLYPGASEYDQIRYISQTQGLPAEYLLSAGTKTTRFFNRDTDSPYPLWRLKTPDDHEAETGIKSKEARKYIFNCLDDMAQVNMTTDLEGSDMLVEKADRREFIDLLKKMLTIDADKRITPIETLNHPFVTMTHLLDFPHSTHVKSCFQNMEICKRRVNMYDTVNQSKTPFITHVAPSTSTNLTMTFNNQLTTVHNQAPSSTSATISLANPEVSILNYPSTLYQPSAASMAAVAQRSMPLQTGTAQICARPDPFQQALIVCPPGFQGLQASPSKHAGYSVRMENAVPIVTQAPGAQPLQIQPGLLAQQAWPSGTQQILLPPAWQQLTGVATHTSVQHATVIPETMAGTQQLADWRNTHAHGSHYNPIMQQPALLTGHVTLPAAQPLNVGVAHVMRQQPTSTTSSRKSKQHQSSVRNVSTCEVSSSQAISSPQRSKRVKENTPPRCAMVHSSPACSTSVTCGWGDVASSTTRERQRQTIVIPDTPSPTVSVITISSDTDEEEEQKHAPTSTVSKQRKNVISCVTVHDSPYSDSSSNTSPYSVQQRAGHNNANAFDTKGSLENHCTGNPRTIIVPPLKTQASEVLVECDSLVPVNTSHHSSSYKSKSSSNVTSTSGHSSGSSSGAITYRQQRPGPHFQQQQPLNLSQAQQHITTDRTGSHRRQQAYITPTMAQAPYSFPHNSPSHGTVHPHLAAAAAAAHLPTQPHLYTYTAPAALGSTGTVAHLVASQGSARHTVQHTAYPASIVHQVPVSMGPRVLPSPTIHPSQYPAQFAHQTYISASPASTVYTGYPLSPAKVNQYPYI
ERK2, sequence (P28482 whole entry): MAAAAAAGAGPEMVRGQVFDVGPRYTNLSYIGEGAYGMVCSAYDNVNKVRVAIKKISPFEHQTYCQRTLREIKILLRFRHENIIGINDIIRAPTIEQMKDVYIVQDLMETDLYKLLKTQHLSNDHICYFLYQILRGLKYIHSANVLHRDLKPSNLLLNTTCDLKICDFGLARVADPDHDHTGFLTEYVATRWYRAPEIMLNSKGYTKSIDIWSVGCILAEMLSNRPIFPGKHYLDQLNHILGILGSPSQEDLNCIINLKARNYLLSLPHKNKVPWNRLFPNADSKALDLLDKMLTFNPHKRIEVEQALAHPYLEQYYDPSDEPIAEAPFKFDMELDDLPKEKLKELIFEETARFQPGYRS
RSK1, sequence (Q15418 whole entry): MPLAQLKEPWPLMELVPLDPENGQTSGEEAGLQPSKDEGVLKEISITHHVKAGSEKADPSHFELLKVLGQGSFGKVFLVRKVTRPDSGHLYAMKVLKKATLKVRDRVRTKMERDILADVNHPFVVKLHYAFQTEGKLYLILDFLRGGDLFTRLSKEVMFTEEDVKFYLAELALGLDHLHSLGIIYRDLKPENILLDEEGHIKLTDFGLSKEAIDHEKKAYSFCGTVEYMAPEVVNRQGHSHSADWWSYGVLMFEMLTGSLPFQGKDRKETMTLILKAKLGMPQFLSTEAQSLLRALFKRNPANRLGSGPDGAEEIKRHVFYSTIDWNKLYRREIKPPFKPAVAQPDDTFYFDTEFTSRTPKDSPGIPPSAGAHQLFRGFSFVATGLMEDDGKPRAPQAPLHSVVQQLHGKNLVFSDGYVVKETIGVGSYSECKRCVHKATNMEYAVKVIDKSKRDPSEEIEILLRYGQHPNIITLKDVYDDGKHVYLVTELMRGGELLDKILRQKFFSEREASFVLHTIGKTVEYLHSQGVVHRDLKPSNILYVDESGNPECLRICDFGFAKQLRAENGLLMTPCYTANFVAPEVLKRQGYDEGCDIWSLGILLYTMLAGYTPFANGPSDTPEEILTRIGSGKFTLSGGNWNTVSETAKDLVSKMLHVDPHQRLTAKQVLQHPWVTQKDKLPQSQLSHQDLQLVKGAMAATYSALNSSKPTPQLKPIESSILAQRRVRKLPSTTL
MAPKAP-K2, sequence (P49137 whole entry): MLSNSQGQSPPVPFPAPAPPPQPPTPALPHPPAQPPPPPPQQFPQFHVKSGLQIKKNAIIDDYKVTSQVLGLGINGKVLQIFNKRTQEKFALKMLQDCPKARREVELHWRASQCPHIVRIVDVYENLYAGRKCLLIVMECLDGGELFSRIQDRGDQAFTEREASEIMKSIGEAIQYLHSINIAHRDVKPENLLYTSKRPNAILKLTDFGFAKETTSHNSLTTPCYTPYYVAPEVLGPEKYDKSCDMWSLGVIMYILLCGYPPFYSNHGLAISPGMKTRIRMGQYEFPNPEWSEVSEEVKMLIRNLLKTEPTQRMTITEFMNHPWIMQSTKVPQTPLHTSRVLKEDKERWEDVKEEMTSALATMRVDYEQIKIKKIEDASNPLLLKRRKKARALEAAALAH
Aurora A, sequence (O14965 whole entry): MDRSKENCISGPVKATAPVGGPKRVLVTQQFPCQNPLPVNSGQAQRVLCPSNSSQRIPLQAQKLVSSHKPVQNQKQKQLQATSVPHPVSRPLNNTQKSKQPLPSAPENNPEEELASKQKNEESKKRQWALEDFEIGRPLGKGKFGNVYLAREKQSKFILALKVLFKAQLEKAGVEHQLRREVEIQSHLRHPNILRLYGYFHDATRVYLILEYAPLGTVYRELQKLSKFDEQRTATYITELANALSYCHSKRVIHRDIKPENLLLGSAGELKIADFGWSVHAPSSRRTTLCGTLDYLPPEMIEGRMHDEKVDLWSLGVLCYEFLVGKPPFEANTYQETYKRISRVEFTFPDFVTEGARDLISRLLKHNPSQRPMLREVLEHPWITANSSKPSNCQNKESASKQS
LKB1, sequence (Q15831 whole entry): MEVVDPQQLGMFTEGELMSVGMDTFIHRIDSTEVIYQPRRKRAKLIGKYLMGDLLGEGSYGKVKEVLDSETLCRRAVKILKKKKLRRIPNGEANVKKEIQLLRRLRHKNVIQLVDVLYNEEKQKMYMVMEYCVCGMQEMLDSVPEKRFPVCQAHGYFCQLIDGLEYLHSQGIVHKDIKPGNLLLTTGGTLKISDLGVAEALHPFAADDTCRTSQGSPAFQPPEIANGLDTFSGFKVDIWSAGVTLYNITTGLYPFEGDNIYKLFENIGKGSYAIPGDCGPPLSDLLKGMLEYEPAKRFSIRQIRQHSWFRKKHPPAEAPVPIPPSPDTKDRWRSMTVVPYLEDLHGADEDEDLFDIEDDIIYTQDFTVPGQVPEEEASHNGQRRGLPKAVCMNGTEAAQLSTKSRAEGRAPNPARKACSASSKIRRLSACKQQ
LKB1, sequence (Q7RTN6 whole entry partner): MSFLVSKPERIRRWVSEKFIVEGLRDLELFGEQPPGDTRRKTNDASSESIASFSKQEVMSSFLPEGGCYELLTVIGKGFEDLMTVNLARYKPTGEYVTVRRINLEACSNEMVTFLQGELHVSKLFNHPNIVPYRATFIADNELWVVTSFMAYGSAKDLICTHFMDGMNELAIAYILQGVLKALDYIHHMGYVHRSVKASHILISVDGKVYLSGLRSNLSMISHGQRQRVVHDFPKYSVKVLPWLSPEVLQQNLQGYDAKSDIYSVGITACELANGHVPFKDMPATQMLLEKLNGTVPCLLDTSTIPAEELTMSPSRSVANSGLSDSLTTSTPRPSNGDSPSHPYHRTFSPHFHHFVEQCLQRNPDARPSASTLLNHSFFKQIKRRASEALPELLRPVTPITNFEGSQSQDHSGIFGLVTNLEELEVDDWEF
LKB1, sequence (Q9Y376 whole entry partner): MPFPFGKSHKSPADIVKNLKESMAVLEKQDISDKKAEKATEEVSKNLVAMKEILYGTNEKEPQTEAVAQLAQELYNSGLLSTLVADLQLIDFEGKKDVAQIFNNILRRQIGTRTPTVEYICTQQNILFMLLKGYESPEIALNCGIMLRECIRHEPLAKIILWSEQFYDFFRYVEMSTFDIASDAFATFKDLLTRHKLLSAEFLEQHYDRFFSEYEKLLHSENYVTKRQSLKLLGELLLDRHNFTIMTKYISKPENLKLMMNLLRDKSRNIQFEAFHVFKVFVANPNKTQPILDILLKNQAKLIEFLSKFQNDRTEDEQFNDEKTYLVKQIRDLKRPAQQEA

What is called remaining activity is the signal under treatment as a percentage of the control signal. Turning to `Nc1ccc2c(NC3CC3)nc(-c3ccccc3)nc2c1` [1b, N^4-Cyclopropyl-2-phenyl-4,7-quinazolinediamine], the “inhibition of enzymatic activity across kinase panel” value in test [1] is reported as “does not inhibit enzymatic activity of any of the tested kinases”. The remaining activity at 10 µM is 98% at ERK2; 98% on LKB1; 98% on MAPKAP-K2; 91% on PRAK; 94% at JNK1; 92% at PAK6. In addition, the remaining activity at 10 µM on Aurora A stood at 104%; on HIPK2, 101%; on SYK it was 99%; at RSK1, 97%; at MSK1, 96%; on p38γ MAPK it was 105%.
